Assay: HILIC, Waters ACQUITY UPLC BEH Amide, 100 × 2.1 mm, 1.7 µm; A: water + 0.125% formic acid + 10 mM ammonium formate; B: 5% water + 95% acetonitrile + 0.125% formic acid + 10 mM ammonium formate; gradient (min/%B) 0/100 2/100 7.7/70 9.5/40 10.25/30 12.75/100 17/100
Conditions: stereoisomer not certain

Structure (SMILES)	LC retention time [min]
NCCC(=O)O [beta-Alanine]	8.02
CC(C)(O)CC(=O)O [beta-Hydroxyisovaleric acid]	4.55
CNC[C@H](N)C(=O)O [beta-N-Methylaminoalanine]	9.32
NCC(O)CCC(N)C(=O)O (stereo not given) [delta-Hydroxylysine]	9.77
NCCCC(=O)O [gamma-Aminobutyric Acid]	7.86
NC(CCC(=O)NC(CS)C(=O)O)C(=O)O (stereo not given) [gamma-Glutamyl-cysteine]	8.98
NC(=O)CCC(NC(=O)CCC(N)C(=O)O)C(=O)O (stereo not given) [gamma-Glutamylglutamine]	9.55
CC(C)CC(NC(=O)CCC(N)C(=O)O)C(=O)O (stereo not given) [gamma-Glutamylleucine]	8.1
CSCCC(NC(=O)CCC(N)C(=O)O)C(=O)O (stereo not given) [gamma-Glutamylmethionine]	8.55
NC(CCC(=O)NC(Cc1ccc(O)cc1)C(=O)O)C(=O)O (stereo not given) [gamma-Glutamyltyrosine]	8.52
CC(OP(=O)(O)O)C(N)C(=O)O (stereo not given) [o-Phosphothreonine]	9.74
CN(C)c1ccc(N=Nc2ccccc2)cc1 [p-(Dimethylamino)azobenzene [methyl yellow]]	0.93
O=C(O)C=Cc1ccc(O)cc1 [p-Coumaric acid]	1.38
CN1C(=O)C(O)CC1c1cccnc1 (stereo not drawn) [trans-3'-Hydroxycotinine]	2.02
OCC1OC(Oc2cc(O)cc(C=Cc3ccc(O)cc3)c2)C(O)C(O)C1O (stereo not drawn) [trans-Piceid]	4.64

From the RepoRT retention time repository
